Measurements: patent US20060199230A1, “Use of prostate specific antigen to predict drug response” (Hybritech Incorporated, priority 2005, published 2006)

What was measured:
[1] = tested on: total PSA, proPSA, free PSA and BPSA in serum; assay: Serum PSA forms at Time 0 and 1 month of dutasteride treatment; drug response = prostate volume decrease of 10% or more at 12 months (Example I); type: in vivo, men
Description: (§1) A cohort of serum samples from men greater or equal to 50 years of age with BPH were used. The PSA range was from 1.5 to 10 ng/ml (median 3.2 ng/ml). International Prostate Symptom Score (IPSS) upon entry were 11-32 (moderate to severe, median 18.5). The median Qmax (urine flow rate in cc per second) was 9.3. Men received TRUS for prostate volume at time 0 and then received dutasteride in a blinded fashion at a rate of 0.5 mg per day. Serum was obtained at 0, 1, 3, and 12 months and was assayed for total PSA, proPSA, free PSA and BPSA. IPSS symptom scores were determined at 0, 1 and 12 months. Additional TRUS for prostate volume was performed at 12 months after the start of drug treatment.
Serum from placebo and drug-treated men were tested for levels of PSA forms at Time 0 (pretreatment baseline), and at 1, 3 and 12 months after the start of placebo or drug treatment. […] In this plot, the decrease in prostate volume by 10% or more was used as the definition of drug response.

[2] = tested on: total PSA, proPSA, free PSA and BPSA in serum; assay: Serum PSA forms at Time 0 and 1 month of dutasteride treatment; drug response = IPSS decrease of 2 or more at 12 months (Example II); type: in vivo, men
Description: as §1
The concentrations of total PSA, free PSA, proPSA, and BPSA were examined at Time 0 (pretreatment baseline) and at 1 month after drug treatment. Drug response was defined as men who had improvement (decrease) in their IPSS of equal to 2 or greater after 12 months of treatment. […] The increases in the ratio of BPSA to total PSA and the ratio of BPSA to free PSA were also highly significant.
Another method of determining a cutoff for clinical utility is to calculate the Odds Ratio of a response to drug treatment at 12 months, based on the percentage change in a measured parameter at 1 month. In this case, the odds of responding to the drug (drop of 2 or more in the IPSS at 12 months) increases with increasing ratio of BPSA to proPSA at 1 month. […] With a >250% increase of BPSA to proPSA ratio over baseline at 1 month, there is at least a 2-fold increase in the odds of having a drug response at 12 months. An Odds Ratio of at least 2 is the preferred embodiment of the invention. Using Odds Ratio as a means to set a cutoff for the increase in the ratio of BPSA to proPSA would have a preferred cutoff of 250%.

[3] = about 1 month after drug administration, men with 10% or greater decrease in prostate volume at 12 months
[4] = median after 1 month of drug, 0.5 mg per day, men with decrease of 10% or more in prostate volume at 12 months
[5] = median, pretreatment baseline, drug-treated men with decrease of 10% or more in prostate volume at 12 months
[6] = Table 3, samples with a decrease of 2 or more in IPSS
[7] = about 1 month, IPSS reduction of 2 or greater at 12 months as drug response
[8] = median after 1 month of drug, 0.5 mg per day, men with improvement in IPSS of 2 or more at 12 months
[9] = median, pretreatment baseline, drug-treated men with improvement in IPSS of 2 or more at 12 months

C[C@]12C=CC(=O)N[C@@H]1CC[C@@H]1[C@@H]2CC[C@]2(C)[C@@H](C(=O)Nc3cc(C(F)(F)F)ccc3C(F)(F)F)CC[C@@H]12 [dutasteride]
total PSA and free PSA levels at 3 months ([1]; 3 months of drug treatment): the levels decrease at 3 months | decrease in proPSA [1, 3]: 48% | increase in BPSA [1, 3]: 86% | increase of the ratio of BPSA to PSA [1, 3]: 78% | increase of the ratio of BPSA to free PSA [1, 3]: 52% | increase of the ratio of BPSA to proPSA over the baseline ratio [1, 3]: 450% | change in total PSA, free PSA, or the ratio of free to total PSA at 1 month ([1]; drug responders: decrease in prostate volume by 10% or more after 12 months): no significant change | change in BPSA at 1 month in drug non-responders ([1]; drug-treated men with less than 10% decrease in prostate volume at 12 months): no significant increase | BPSA, 1 Month [1, 4]: 0.186 ng/mL | BPSA/free PSA, 1 Month [1, 4]: 0.230 | BPSA/proPSA, 1 Month [1, 4]: 2.26 | BPSA/total PSA, 1 Month [1, 4]: 0.050 | Free PSA, 1 Month [1, 4]: 0.76 ng/mL | Free PSA/total PSA, 1 Month [1, 4]: 0.214 | Total PSA, 1 Month [1, 4]: 3.14 ng/mL | proPSA, 1 Month [1, 4]: 0.097 ng/mL | BPSA, Time 0 [1, 5]: 0.100 ng/mL | BPSA/free PSA, Time 0 [1, 5]: 0.151 | BPSA/proPSA, Time 0 [1, 5]: 0.499 | BPSA/total PSA, Time 0 [1, 5]: 0.028 | Free PSA, Time 0 [1, 5]: 0.70 ng/mL | Free PSA/total PSA, Time 0 [1, 5]: 0.204 | Total PSA, Time 0 [1, 5]: 3.02 ng/mL | proPSA, Time 0 [1, 5]: 0.204 ng/mL | BPSA level at three months vs baseline ([1]; three months after the start of drug administration, FIG. 1): decline below the baseline level | BPSA, median value at 1 month, Drug [2, 6]: 0.091, 0.151 ng/ml | BPSA/free PSA, median value at 1 month, Drug [2, 6]: 0.228 | BPSA/total PSA, median value at 1 month, Drug [2, 6]: 0.032, 0.046 | Free PSA, median value at 1 month, Drug [2, 6]: 0.62, 0.67 ng/ml | Free PSA/total PSA, median value at 1 month, Drug [2, 6]: 0.22, 0.21 | Total PSA, median value at 1 month, Drug [2, 6]: 3.00, 3.08 ng/ml | decrease in proPSA [2, 7]: 41% | increase in BPSA to proPSA ratio over baseline [2, 7]: 230% | increase in BPSA/free PSA ratio [2, 7]: 44% | increase in BPSA/total PSA ratio [2, 7]: 59% | increase in BPSA ([2]; about 1 month, IPSS reduction of 2 or greater at 12 months as drug response, not significant): 25% | BPSA, 1 Month [2, 8]: 0.151 ng/mL | BPSA/free PSA, 1 Month [2, 8]: 0.228 | BPSA/proPSA, 1 Month [2, 8]: 1.32 | BPSA/total PSA, 1 Month [2, 8]: 0.046 | Free PSA, 1 Month [2, 8]: 0.67 ng/mL | Free PSA/total PSA, 1 Month [2, 8]: 0.21 | Total PSA, 1 Month [2, 8]: 3.14 ng/mL | proPSA, 1 Month [2, 8]: 0.103 ng/mL | BPSA, Time 0 [2, 9]: 0.120 ng/mL | BPSA/free PSA, Time 0 [2, 9]: 0.158 | BPSA/proPSA, Time 0 [2, 9]: 0.584 | BPSA/total PSA, Time 0 [2, 9]: 0.029 | Free PSA, Time 0 [2, 9]: 0.77 ng/mL | Free PSA/total PSA, Time 0 [2, 9]: 0.19 | Total PSA, Time 0 [2, 9]: 3.68 ng/mL | proPSA, Time 0 [2, 9]: 0.253 ng/mL | difference in any PSA-related parameter, Time 0 vs 1 month, drug non-responders ([2]; men with IPSS improvement of less than 2): None of the placebo samples, or the men with IPSS improvement of less than 2 (drug non-responders), showed statistically a significant difference
